US11155814B2, “Methods for using DNA repair for cell engineering” (Caribou Biosciences, Inc., priority 2016, dated 2021)

Test system: HEK293T cells
Experiment: Compound treatment: DNA-PK inhibitor added after sgRNP nucleofection, DNA repair outcomes profiled by amplicon sequencing
Format: cell-based, human
Experimental: For compound treatments, sgRNP formation and nucleofection of 293T cells was performed as described above and cells were plated in 150 μl of culture medium. One hour after plating, 50 μl of media containing compound at 4× the final concentration were delivered to the cells. […] 48 hours after compound addition, cells were harvested and processed for genomic DNA preparation as described below.
K562 cells and HSCs were transferred to a thermal cycler compatible plate and pelleted by centrifugation. After the media was gently aspirated, 50 μl EpiBio QuickExtract DNA extraction solution (Epicentre, QE09050) was added into each well and the plate was incubated at 37° C. for 15 minutes. For HEK293 and HCT116 cells, media was gently aspirated from 96-well culture plates and cells were gently rinsed with 1×Phosphate Buffered Saline (PBS). 50 μl of EpiBio QuickExtract DNA extraction solution was added to each well and the plates were incubated at 37° C. for 15 minutes. For all cell types, molecular biology grade water (Teknova) was added to each well to attain a concentration of 1000 genomic copies/μl for subsequent PCR reactions. After addition of water, adherent cells were then transferred to thermal cycler compatible plates. All cell types were lysed (75° C. 10 min, 95° C. 5 min) and the lysate was stored at −80° C. […]
Following secondary alignment, reads were then categorized as “mutant” if they contained an indel within ±5 base pairs of the cut site; otherwise, they were categorized as “wild type”. Each mutant read was assigned to an “indel class” based on the indel type (insertion or deletion), start site, and length.
Heat maps were generated from the processed sequencing data as follows. […] The color intensities in the cells correspond to frequency as a fraction of mutant reads, with the color scale ranging from 0 to 0.2 (saturation). […]

[1] = as inhibitor concentration increased (1.56 μM-25 μM), 48 hours

O=c1cc(N2CCOCC2)oc2c(-c3cccc4c3sc3ccccc34)cccc12 [NU7441]
mean frequency of a subset of large deletions (>3 base pairs) present in the DNA repair profiles [1]: increased | mean frequency of single base insertions and small deletions (<3 base pairs) [1]: decreased | change of the DNA repair patterns at 12 different target sites compared with untreated samples (lowest concentration of inhibitor (1.56 μM), added one hour post nucleofection, harvested 48 hours): apparent
